Measurements: US8524765B2, “Compounds that modulate intracellular calcium” (Calcimedica, Inc., priority 2007, dated 2013)
Where two headings read alike, the source gives them in different places.

What was measured:
[1] = Skin transplant rejection in Lewis rats; format: in vivo, rat; details: FIG. 18
hOrail/hSTIM1 [2] = biological target: T1, hOrail/hSTIM1 (Homo sapiens, UniProt Q96D31); assay: Recombinant hOrail/hSTIM1-dependent Ca2+ entry in stable cells; format: cell-based; details: FIG. 14
T1 construct: expressed in transfected cells

[3] = DNBS-induced colitis in rats (ulcerative colitis model for IBD); format: in vivo, rat; details: FIG. 20
Protocol: Procedure: Male Wistar rats weighing 200±20 g are fasted for 24 hours prior to use. Distal colitis is induced by intra-colonic instillation of DNBS (2,4-dinotrobenzene sulfonic acid, 20 mg in 0.5 ml ethanol 30%) with a catheter of 12 cm in length, followed by gentle injection of air (2 ml) through the catheter to ensure that the solution remain in the colon. The animals are divided into groups of 5 each. Test substance and vehicle are administered either daily or twice daily by appropriate route of administration 24 hour and 1 hour before DNBS instillation and then for 6 consecutive days thereafter. One normal control group is treated with 0.9% NaCl alone without DNBS challenge. […] During the experiment, body weight, fecal occult blood and stool consistency are monitored daily. Furthermore, when the abdominal cavity is opened before removal of the colon, adhesions between the colon and other organs are noted as is the presence of colonic ulceration after removal and weighing of each colon (a macroscopic damage score is recorded according to established score criteria). The colon-to-body weight ratio is calculated according to the formula: Colon (g)/BW×100. The “Net” increase in ratio of Vehicle-control+DNBS group relative to Vehicle-control group is used as a base for comparison with individual treated groups and expressed as “Dec. […]

[4] = test system: store-operated calcium entry in RBL-2H3 cells; assay: Fluorescence (FLUO-4/FLIPR384) store-operated calcium entry screening assay; format: cell-based, rat
Protocol: Fluorescence-based assays were used for screening the compounds described herein, such as compounds of Formula (I) and Formula (II), which modulate intracellular calcium.
RBL-2H3 cells plated in 384-well plates were loaded for 45 min with FLUO-4-AM (2 μM final concentration) in HBSS. Cells were washed and placed in a nominally Ca^2+- and Mg^2+-free Hanks solution. One minute later, a test agent or vehicle was added. After a 15 minute incubation period, 1 μM thapsigargin (Tg) was added to inhibit the ER Ca^2+ pump and discharge intracellular Ca^2+ stores. Fifteen minutes after addition of Tg, store-operated calcium entry was initiated by adding external Ca^2+ to a final concentration of 1.8 mM and the cells monitored for a further 10-15 minutes. Calcium levels were monitored throughout the assay using a FLIPR^384 (Molecular Devices fluorimetric imaging plate reader for high throughput screening).
A similar screening assay procedure was used with HEK293 and RBL-2H3 cells.
The kinetic data from the FLIPR^384 were analyzed and then stored in a relational database (ActivityBase; IDBS). Ten quantitative parameters were calculated that define various aspects of the store-operated calcium entry response. These parameters are as follows:
Up slope: linear regression of the increase in RFU from 2 to 30 sec after addition of Ca^2+.
Combinations of these parameters were used to characterize the compounds of Formula (I). Compounds were retested under identical conditions to confirm their activity. Compounds with confirmed activity were then analyzed for concentration-dependent effects, and subsequently, those compounds displaying concentration-dependent effects were categorized as compounds that modulate intracellular calcium.

SOCE = assay: Selectivity profile; details: FIG. 8
hOrail/hSTIM1 [5] = biological target: T1, hOrail/hSTIM1; assay: Monster ICRAC in cells stably overexpressing hOrail/hSTIM1; format: cell-based; details: FIG. 15
primary human T cells = assay: Con A-induced cell proliferation of primary human T cells; format: cell-based; details: FIG. 6, read-out: IC50 for inhibition of Con A-induced cell proliferation
rat T cells [6] = assay: IL-2 secretion in rat T cells; format: cell-based; details: T-cell, FIG. 5, read-out: IC50 for inhibition of IL-2 secretion
RBL-2H3 cells = assay: Degranulation (β-hexosaminidase release) assay; format: cell-based; details: Rattus norvegicus
Protocol: To assess degranulation and cytokine release, RBL-2H3 cells were plated and stimulated with 20 nM thapsigargin/20 nM TPA for 20 hr in the presence or absence of compound of Formula (I) or Formula (II). Media was collected and assayed for the release of β-hexosaminidase or for the release of the inflammatory mediator cytokine TNF-α. The β-hexosaminidase enzymatic assay was performed by adding 200 μL 1 mM p-nitrophenyl-acetyl-glucosamide substrate (Sigma #N9376) in 0.05M Na Citrate (pH 4.5) to 50 μL of conditioned medium, incubating for 60 min at 37° C., then adding 500 μL 0.05M Na carbonate, 0.05M Na bicarbonate pH 10.5, mixing thoroughly, and reading the absorbance at 405 nm in a BioRad plate reader. The TNF-α release assay was performed using the Rat Tumor Necrosis Factor-a Ultrasensitive ELISA Kit from BioSource.

rat T cells [7] = assay: Cell proliferation of rat T cells; format: cell-based; details: FIG. 5, read-out: IC50 for inhibition of cell proliferation
Jurkat T cells = assay: IL-2 secretion from Jurkat T cells (PHA+TPA, ELISA); format: cell-based
Protocol: To measure IL-2 secretion from Jurkat T cells, cells were plated in a 96 well plate at a density of 1.5×10^5 cells/well. Cells were stimulated with 2.5 μg/ml PHA lectin+80 nM TPA for 20 hr in the presence or absence of a compound of Formula (I) or Formula (II). The medium was then collected and analyzed for IL-2 levels by ELISA (BioSource) according to the manufacturer's protocols.

SOCE in rat T cells = assay: SOCE in rat T cells; format: cell-based; details: T-cell, FIG. 5, read-out: IC50 for inhibition of SOCE
[8] = Rat collagen induced arthritis (CIA) model, liver weight; format: in vivo; details: given orally, FIG. 11
Protocol: 40 rats are injected with collagen to get 40 solid responders on days 10,11 for 4 groups of 10. Four nonimmunized animals serve as normal controls.
Collagen is prepared by making a 4 mg/ml solution in 0.01N Acetic acid. Equal volumes of collagen and Freund's incomplete adjuvant, are emulsified by hand mixing until a bead of this material holds its form when placed in water.
Animals (10 rats/group for arthritis, 4 rats/group for normal control).
Animals in groups 2-5 are anesthetized with isoflurane and given collagen injections (DO); each animal gets 300 μl of the mixture spread over 3 subcutaneous sites on the back. On Day 6 (D6) the animals are anesthetized again and given a second collagen injection, as before.
Rats are weighed on Days 0, 3, 6, and 9-17 of arthritis, and caliper measurements of ankles taken every day beginning on Day 9. Final body weights are taken on Day 17 of arthritis. On Day 17, all animals are anesthetized for terminal blood draw and then euthanized. Subsequently, hind paws and knees are removed, the hind paws are weighed and then (with knees) placed in formalin for processing for microscopy. Livers, spleen and thymus and kidneys are also removed, trimmed of extraneous tissue and weighed. Kidneys are retained in formalin for histopathology.
Sampling will occur over 1 day and involves groups 2-5 with samples retained from all groups.

T1 sequence (Q96D31 whole entry): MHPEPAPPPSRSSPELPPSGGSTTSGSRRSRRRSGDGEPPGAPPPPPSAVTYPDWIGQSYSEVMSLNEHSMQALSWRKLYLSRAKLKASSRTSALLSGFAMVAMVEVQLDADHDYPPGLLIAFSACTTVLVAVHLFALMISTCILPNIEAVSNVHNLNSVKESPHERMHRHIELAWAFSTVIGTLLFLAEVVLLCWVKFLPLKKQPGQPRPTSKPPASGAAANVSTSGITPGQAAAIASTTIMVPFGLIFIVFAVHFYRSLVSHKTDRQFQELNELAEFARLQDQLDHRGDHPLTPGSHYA
T1 sequence (Q13586 23-685 partner): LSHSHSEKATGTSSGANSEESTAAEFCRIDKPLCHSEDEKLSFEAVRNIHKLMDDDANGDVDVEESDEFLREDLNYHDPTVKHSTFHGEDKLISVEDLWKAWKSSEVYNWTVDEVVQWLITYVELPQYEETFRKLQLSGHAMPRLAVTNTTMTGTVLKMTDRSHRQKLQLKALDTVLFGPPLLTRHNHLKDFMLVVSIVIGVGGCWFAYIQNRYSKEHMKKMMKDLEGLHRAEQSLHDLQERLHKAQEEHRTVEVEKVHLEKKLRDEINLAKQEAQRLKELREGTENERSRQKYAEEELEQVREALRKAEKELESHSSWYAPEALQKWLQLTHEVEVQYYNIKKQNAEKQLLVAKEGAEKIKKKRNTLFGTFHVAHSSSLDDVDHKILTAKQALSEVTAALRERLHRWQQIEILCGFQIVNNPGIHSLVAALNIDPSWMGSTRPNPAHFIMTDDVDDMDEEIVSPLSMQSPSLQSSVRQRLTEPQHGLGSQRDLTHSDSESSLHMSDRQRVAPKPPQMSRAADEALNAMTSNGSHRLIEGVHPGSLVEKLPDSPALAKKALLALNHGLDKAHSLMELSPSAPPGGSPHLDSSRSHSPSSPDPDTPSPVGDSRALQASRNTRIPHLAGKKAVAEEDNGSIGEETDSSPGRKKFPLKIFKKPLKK

- effect on recombinant hOrail/hSTIM1-dependent Ca2+ entry (hOrail/hSTIM1 [2]): inhibition
- IC50 ([4]; Rattus norvegicus, Up slope parameter, RBL-2H3 cells): 2.2 µM
- effect on Monster ICRAC (hOrail/hSTIM1 [5]): inhibit
- IC50 (rat T cells [6]): ~2500 nM
- IC50 (RBL-2H3 cells; RBL-2H3, 2 hour TG/TPA induction in HBSS+1% serum, 10 minute pretreatment, FIG. 4, read-out: IC50 for inhibition of degranulation, presence of serum): 1000 to 3000 nM
- IC50 (RBL-2H3 cells; RBL-2H3, 2 hour TG/TPA induction in HBSS, 10 minute pretreatment, FIG. 4, read-out: apparent IC50 for inhibition of degranulation, absence of serum): < 300 nM
- IC50 (RBL-2H3 cells; RBL-2H3 cells induced with TG/TPA, FIG. 3, read-out: IC50 for inhibition of degranulation): 2600 nM
- IC50 (Jurkat T cells; Homo sapiens, Jurkat T cells stimulated with PHA+TPA, FIG. 7, read-out: IC50 for inhibition of IL-2 release): ~500 nM
- IC50 (SOCE in rat T cells): ~2400 nM
- reduction in liver weight [8]: no liver weight reduction
Structure (SMILES): O=C(Nc1scc(-c2ccc(Br)cc2)c1C(=O)O)c1ccc(F)cc1 [Compound 1, 2-(4-fluorobenzamido)-4-(4-bromophenyl)thiophene-3-carboxylic acid]
- rejection of skin transplants [1]: delayed rejection
- inflammation in the rat ulcerative colitis model for IBD [3]: inhibition of inflammation
- inhibition of the initial kinetics of the CRAC channel response ([4]; RBL-2H3 cells, FIG. 2): concentration-dependent inhibition
- inhibition at 10 µM ([4]; Rattus norvegicus, RBL-2H3, 10 μM, cell line not stated): > 70%
- selectivity profile (SOCE): selective inhibitor of SOCE
- IC50 (primary human T cells): ~3700 nM
- IC50 (rat T cells [7]): ~4300 nM
- effect of combination with cyclosporin A on IL-2 secretion (Jurkat T cells; Jurkat T cells stimulated with PHA/TPA, Compound 1 together with cyclosporin A, FIG. 10): additive effects
